One compound from US11413261B2, “Pharmaceutical composition for treating cancer comprising lactate metal salt” (METIMEDI PHARMACEUTICALS CO., LTD, priority 2014, dated 2022) can be followed below.

One test has as its system β-catenin. Kind of test: β-catenin mRNA (RT-PCR) and protein (Western blot) expression in colorectal cancer cell lines. The test is classed as cell-based, human. Conditions: HCT-116, HT-29, DLD-1. As to the method:
Human colorectal cancer cell lines (HCT-116, HT-29, and DLD-1) were cultured by the same method as that of Example 2-1 except that they were treated with 0 mM, 1.5 mM, or 2.5 mM calcium lactate, and the cultured cancer cells were obtained. Then, expression levels of […] depending on the concentration of calcium lactate were compared at the expression levels of mRNA and protein included therein.
Firstly, in order to compare mRNA expression levels, the total RNA was extracted from each of the cancer cells using an RNeasy mini kit and cDNA was synthesized using a reverse transcriptase. The gene of β-catenin was obtained through reverse transcriptase PCR using the synthesized cDNA as a template and the primers described below.
Then, in order to compare protein expression levels, each of the cancer cells was disrupted and electrophoresis was performed thereto. Then, a Western blot using anti-β-catenin antibody as a primary antibody and an anti-rabbit IgG conjugate as a secondary antibody was conducted (lower part of FIG. 5) and the blots were analyzed with the Image-J program. In this case, actin was used as internal control groups.
(In general: A western blot detects proteins with antibodies after separation by electrophoresis.)

Test [1] has as its system human colorectal cancer cell lines (HCT-116, HT-29, and DLD-1). Nature of the test: Viability of colorectal cancer cell lines in plate with low adhesivity. Type of test: cell-based. Conditions: HCT-116, HT-29, DLD-1, 1.5 or 2.5 mM (untreated about 5%). As to the method: Human colorectal cancer cell lines (HCT-116, HT-29, and DLD-1) were inoculated into a 6-well plate with low adhesivity and then cultured treating with various concentrations (0 mM, 1.5 mM, or 2.5 mM) of calcium lactate. Then, survival rates of the cells were compared (FIG. 26).

A further test has as its system VEGF. Nature of the test: VEGF expression in tumor tissues of animal model. The test is classed as in vivo, Balb/c mice. Conditions: HT-29 tumor tissue. As to the method:
A colorectal cancer cell (HT-29) cultured in an RPMI1640 medium and then diluted with PBS was subcutaneously implanted into the flank of Balb/c mice. The mice were bred until the colorectal cancer cell grew to about 5 mm. Then, four groups were set up; a control group untreated with calcium lactate for 30 days, an experimental group 1 (peroral, P.O.) administered with 2.5 mM calcium lactate by oral administration, an experimental group 2 (intra tumor, I.T) injected with 2.5 mM calcium lactate around tumor, and an experimental group 3 (subcutaneous, S.C) subcutaneously injected with 25 mM calcium lactate (FIG. 27).
Colorectal cancer tissues were extracted from the mice of the control group or the experimental group 1 set up in Example 10-1, and expression levels of HIF-1α and VEGF involved in metastasis, invasion, and angiogenesis of tumor expressed therein were compared (FIG. 29). In this case, GAPDH was used as internal control groups.
Colorectal cancer tissues were extracted from the mice of the control group or the experimental group 2 set up in Example 10-1, and expression levels of HIF-1α and VEGF involved in metastasis, invasion, and angiogenesis of tumor therein were compared (FIG. 31). In this case, GAPDH was used as internal control groups.

Test [2] has as its system human colorectal cancer cell lines (HCT-116 and HT-29). Nature of the test: Pyruvate level in cancer cells (pyruvate assay kit). Type of test: cell-based. Conditions: 2.5 mM, 24 hours. As to the method:
Each of human colorectal cancer cell lines (HCT-116 and HT-29) with the cell number of 5×10^5 cells was treated with 2.5 mM calcium lactate for 24 hours and the cells were disrupted by ultrasonication and filtered using a 10 kDa filter so as to obtain filtrate. The obtained filtrate was applied to a pyruvate assay kit (Abcam, Cambridge, Mass.) to measure the concentration of pyruvate included in the filtrate (FIG. 12).

Test [3] relates to colorectal cancer cell (HT-29 or HCT-116). Nature of the test: Tumor volume in animal model treated with radiation and calcium lactate. Type of test: in vivo, mice. As to the method: A colorectal cancer cell (HT-29 or HCT-116) was subcutaneously implanted into the flank of mice. The mice were bred until the colorectal cancer cell grew to about 5 mm. Then, four groups were set up; a control group untreated with calcium lactate for 30 days, an experimental group 11 (intra tumor, I.T) injected with 2.5 mM calcium lactate, an experimental group 12 (IR) irradiated with radiation of 2 Gy five times using an X-RAD 320 X-ray irradiator (300 kVp) equipped with a 2.0 mm aluminum filter, and an experimental group 13 (CaLa+IR) irradiated with radiation of 2 Gy five times and injected with 2.5 mM calcium lactate at the same time (FIG. 36).
The volumes of colorectal cancer tissues extracted from the mice of the control group or each of the experimental groups set up in Example 11-1 were measured over time and compared with each other (FIGS. 37a and 37b).

As to `CC(O)C(=O)[O-].CC(O)C(=O)[O-].[Ca+2]` (centres unmarked) [calcium lactate], the “mRNA expression levels of β-catenin” value in the test with β-catenin (0, 1.5, 2.5 mM) is listed as “no difference”. The “protein expression levels of β-catenin” value in the test with β-catenin (with increasing concentration (0, 1.5, 2.5 mM)) is “decreased”. The cell apoptosis rate result in test [1] is “about 90%”. The “expression of VEGF” value was “inhibited” in the test with VEGF (experimental group 1, 2.5 mM oral administration) and “inhibited” with VEGF (experimental group 2, 2.5 mM injected around tumor). Further, the “pyruvate levels in the cells” value in test [2] is “sharply increased”. The growth of tumor result in test [3] (2.5 mM calcium lactate I.T. individually, vs control) was “inhibited”; in test [3] (2.5 mM calcium lactate in combination with radiation of 2 Gy five times) it was “inhibited to the lowest level”.
